# Patent publication US10179790B2 (THOMAS HELLEDAYS STIFTELSE FOR MEDICINSK FORSKNING, priority 2014, dated 2019)
# Assays:
# [1] = target: MTH1 (Homo sapiens, UniProt P36639); assay: MTH1 enzymatic assay and IC50 value determination (malachite green, 96- and 384-well format); type: biochemical; details: hydrolysis of dGTP (100 μM), MTH1 6 nM, pyrophosphatase-coupled malachite green, 15 minutes at 22° C.
# Outline: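 MTH1 (6 nM) hydrolysed dGTP (100 μM) for 15 min at 22 °C in Tris-acetate buffer with Mg2+, DTT, Tween 20 and excess pyrophosphatase, 1% DMSO. Pi detected with malachite green at 630 nm. IC50 from nonlinear 4-parameter fit of 11–12-point dilution series.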
# [2] = tested on: cancer cell; assay: Cell viability assay (resazurin); type: cell-based; details: 72 h; 3 days with compound, resazurin fluorescence; cell line not named
# Outline: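 Cells in DMEM GlutaMAX or line-appropriate medium are exposed to compound for 3 days at 37 °C, 5% CO2. Viability is read as resazurin fluorescence (Ex544/Em590) after 2 h incubation. In the 384-well format, cells are seeded onto 11 pre-dispensed concentrations (final DMSO <1%) and read after 3 h resazurin.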
SMILES,IC50 [1],IC50 [2]
"Cc1c(Cl)cccc1-c1cc(NCCSc2ccc(S(N)(=O)=O)cn2)nc(N)n1 [Example 180, 6-[2-[[2-amino-6-(3-chloro-2-methyl-phenyl)pyrimidin-4-yl]amino]ethylsulfanyl]pyridine-3-sulfonamide]",< 200 nM,< 500 nM
"COC(=O)c1ccc(CSCCNc2cc(-c3cccc(Cl)c3C)nc(N)n2)cc1 [Example 181, methyl 4-[2-[[2-amino-6-(3-chloro-2-methyl-phenyl)pyrimidin-4-yl]amino]ethylsulfanylmethyl]benzoate]",< 200 nM,< 500 nM
"COC(=O)c1ccc(CCNc2cc(-c3cccc(Cl)c3C)nc(N)n2)cc1 [Example 182, methyl 4-[2-[[2-amino-6-(3-chloro-2-methyl-phenyl)pyrimidin-4-yl]amino]ethyl]benzoate]",< 200 nM,< 500 nM
"CCOC(=O)c1ccc(CCNc2cc(-c3cccc(Cl)c3C)nc(N)n2)cc1 [Example 183, ethyl 4-[2-[[2-amino-6-(3-chloro-2-methyl-phenyl)pyrimidin-4-yl]amino]ethyl]benzoate]",< 200 nM,< 500 nM
"CCCOC(=O)c1ccc(CCNc2cc(-c3cccc(Cl)c3C)nc(N)n2)cc1 [Example 184, propyl 4-[2-[[2-amino-6-(3-chloro-2-methyl-phenyl)pyrimidin-4-yl]amino]ethyl]benzoate]",< 200 nM,< 500 nM
"Cc1c(Cl)cccc1-c1cc(NCCc2ccc(C(=O)OCCO)cc2)nc(N)n1 [Example 185, 2-hydroxyethyl 4-[2-[[2-amino-6-(3-chloro-2-methyl-phenyl)pyrimidin-4-yl]amino]ethyl]benzoate]",< 200 nM,< 500 nM
"Cc1c(Cl)cccc1-c1cc(NCCc2ccc(C(=O)OCCS(C)(=O)=O)cc2)nc(N)n1 [Example 186, 2-methylsulfonylethyl 4-[2-[[2-amino-6-(3-chloro-2-methyl-phenyl)pyrimidin-4-yl]amino]ethyl]benzoate]",< 200 nM,< 500 nM
"Cc1c(Cl)cccc1-c1cc(NCCc2ccc(C(=O)OCC(O)CO)cc2)nc(N)n1 (stereo not shown) [Example 187, 2,3-dihydroxypropyl 4-[2-[[2-amino-6-(3-chloro-2-methyl-phenyl)pyrimidin-4-yl]amino]ethyl]benzoate]",< 200 nM,< 500 nM
"Cc1c(Cl)cccc1-c1cc(NCCNc2ccc(S(C)(=O)=O)nc2)nc(N)n1 [Example 188, 6-(3-chloro-2-methyl-phenyl)-N4-[2-[(6-methylsulfonyl-3-pyridyl)amino]ethyl]pyrimidine-2,4-diamine]",< 200 nM,< 500 nM
"CC(=O)Nc1ccc(NCCNc2cc(-c3cccc(Cl)c3C)nc(N)n2)cc1C [Example 189, N-[4-[2-[[2-amino-6-(3-chloro-2-methyl-phenyl)pyrimidin-4-yl]amino]ethylamino]-2-methyl-phenyl]acetamide]",< 200 nM,< 500 nM
"CCc1ccc(CCNc2cc(-c3cccc(Cl)c3C)nc(N)n2)cc1 [Example 191, 6-(3-chloro-2-methyl-phenyl)-N4-[2-(4-ethylphenyl)ethyl]pyrimidine-2,4-diamine]",< 200 nM,< 500 nM
"Cc1c(Cl)cccc1-c1cc(NCCc2ccc(C(=O)NC(C)CO)cc2)nc(N)n1 (stereo not shown) [Example 194, 4-(2-{[2-amino-6-(3-chloro-2-methylphenyl)pyrimidin-4-yl]amino}ethyl)-N-(1-hydroxypropan-2-yl)benzamide]",< 200 nM,< 500 nM
"Cc1c(Cl)cccc1-c1cc(NCCc2ccc(C(=O)N3CCN(C)CC3)cc2)nc(N)n1 [Example 195, 6-(3-chloro-2-methylphenyl)-4-N-{2-[4-(4-methylpiperazine-1-carbonyl)phenyl]ethyl}pyrimidine-2,4-diamine]",< 200 nM,< 500 nM
"Cc1c(Cl)cccc1-c1cc(NCCc2ccc([S+](C)[O-])cc2)nc(N)n1 (stereo not shown) [Example 196, 6-(3-chloro-2-methylphenyl)-N4-[2-(4-methanesulfinylphenyl)ethyl]pyrimidine-2,4-diamine]",< 200 nM,< 500 nM
"Cc1c(-c2cc(NCCc3ccc(S(C)(=O)=O)cc3)nc(N)n2)cccc1C(F)(F)F [Example 198, N4-[2-(4-methanesulfonylphenyl)ethyl]-6-[2-methyl-3-(trifluoromethyl)phenyl]pyrimidine-2,4-diamine]",< 200 nM,< 500 nM
"Cc1c(Cl)cccc1-c1cc(NCCOc2nccc3occc23)nc(N)n1 [Example 200, 6-(3-chloro-2-methylphenyl)-N4-(2-{furo[3,2-c]pyridin-4-yloxy}ethyl)pyrimidine-2,4-diamine]",< 200 nM,< 500 nM
Cc1c(Cl)cccc1-c1cc(NCCOc2ccc(C(N)=O)cc2)nc(N)n1 [Example 201],< 200 nM,< 500 nM
"Cc1c(Cl)cccc1-c1cc(NCCOc2ccc(/C(N)=N/O)cc2)nc(N)n1 [Example 203, (Z)-4-(2-{[2-amino-6-(3-chloro-2-methylphenyl)pyrimidin-4-yl]amino}ethoxy)-N′-hydroxybenzene-1-carboximidamide]",< 200 nM,< 500 nM
"Cc1c(Cl)cccc1-c1cc(NCCCOc2ccc(S(C)(=O)=O)cc2)nc(N)n1 [Example 204, 6-(3-chloro-2-methylphenyl)-N4-[3-(4-methanesulfonylphenoxy)propyl]pyrimidine-2,4-diamine]",< 200 nM,< 500 nM
"Cc1c(Cl)cccc1-c1cc(NCCCOc2nccc(C(N)=O)n2)nc(N)n1 [Example 205, 2-(3-{[2-amino-6-(3-chloro-2-methylphenyl)pyrimidin-4-yl]amino}propoxy)pyrimidine-4-carboxamide]",< 200 nM,< 500 nM
"Cc1c(Cl)cccc1-c1cc(NCCCOc2ccc(C(N)=O)cn2)nc(N)n1 [Example 206, 6-(3-{[2-amino-6-(3-chloro-2-methylphenyl)pyrimidin-4-yl]amino}propoxy)pyridine-3-carboxamide]",< 200 nM,< 500 nM
"Cc1c(Cl)cccc1-c1cc(NCCc2ccc(S(=O)(=O)N3CCOCC3)cc2)nc(N)n1 [Example 207, 6-(3-chloro-2-methylphenyl)-N4-{2-[4-(morpholine-4-sulfonyl)phenyl]ethyl}pyrimidine-2,4-diamine]",< 200 nM,< 500 nM
"COCCNS(=O)(=O)c1ccc(CCNc2cc(-c3cccc(Cl)c3C)nc(N)n2)cc1 [Example 208, 4-(2-{[2-amino-6-(3-chloro-2-methylphenyl)pyrimidin-4-yl]amino}ethyl)-N-(2-methoxyethyl)benzene-1-sulfonamide]",< 200 nM,< 500 nM
"Cc1c(Cl)cccc1-c1cc(NCCc2ccc(S(=O)(=O)NC3COC3)cc2)nc(N)n1 [Example 209, 4-(2-{[2-amino-6-(3-chloro-2-methylphenyl)pyrimidin-4-yl]amino}ethyl)-N-(oxetan-3-yl)benzene-1-sulfonamide]",< 200 nM,< 500 nM
"Cc1c(Cl)cccc1-c1cc(NCCc2ccc(S(=O)(=O)NC3CCOCC3)cc2)nc(N)n1 [Example 210, 4-(2-{[2-amino-6-(3-chloro-2-methylphenyl)pyrimidin-4-yl]amino}ethyl)-N-(oxan-4-yl)benzene-1-sulfonamide]",< 200 nM,< 500 nM
"C#CCN(C)C(=O)c1ccc(CCNc2cc(-c3cccc(Cl)c3C)nc(N)n2)cc1 [Example 211, 4-(2-{[2-amino-6-(3-chloro-2-methylphenyl)pyrimidin-4-yl]amino}ethyl)-N-methyl-N-(prop-2-yn-1-yl)benzamide]",< 200 nM,< 500 nM
"C#Cc1ccc(CCNc2cc(-c3cccc(Cl)c3C)nc(N)n2)cc1 [Example 212, 6-(3-chloro-2-methylphenyl)-N4-[2-(4-ethynylphenyl)ethyl]pyrimidine-2,4-diamine]",< 200 nM,< 500 nM
"Cc1c(Cl)cccc1-c1cc(NCCOc2ccc(S(N)(=O)=O)cn2)nc(N)n1 [Example 213, 6-(2-(2-amino-6-(3-chloro-2-methylphenyl)pyrimidin-4-ylamino)ethoxy)pyridine-3-sulfonamide]",< 200 nM,< 500 nM
"Cc1c(Cl)cccc1-c1cc(NCCOc2ccc(S(C)(=O)=O)cn2)nc(N)n1 [Example 214, 6-(3-Chloro-2-methylphenyl)-N4-(2-(5-(methylsulfonyl)pyridin-2-yloxy)ethyl)pyrimidine-2,4-diamine]",< 200 nM,< 500 nM
